Patent US10508111B2, “6-[5-amino-6-(2-ethoxyethoxy)-imidazo[4,5-B]pyridin-3-yl]-nicotinonitrile derivatives and their use as IRAK inhibitors” (GALAPAGOS NV, priority 2015, dated 2019)

What was measured:
GSK3b = molecular target: T1, GSK3b (Homo sapiens, UniProt P49841); assay: Kinase selectivity profiling (focused panel), radioactive filter plate assay: GSK3b; type: biochemical; settings: Phospho glycogen synthase peptide2, 1.5 μM ATP, 90 min
T1 construct: purchased Carna Biosciences 04-141
Method: The purpose of this assay is to determine the activity and selectivity of a compound of the invention on a selected range of human kinases which may result in undesirable side-effects when inhibited (Dy & Adjei 2013; Force & Kolaja 2011).
The IC50 value for off-target kinases is determined in radioactive filter plate assays. The principle of the assays consists in the measurement of incorporated ^33P into a peptide substrate upon phosphorylation by the kinase enzyme using [γ-^33P]ATP and ATP. Unincorporated ^33P is removed by loading the samples on a filter plate (using a harvester, PerkinElmer) and 6 subsequent washing steps. Incorporated ^33P in the peptide substrate is measured by a scintillation counter (Topcount, PerkinElmer) after addition of MicroScint™-20 (PerkinElmer, 6013621) to the filter plates.
5 μL of a water dilution series of test compound (starting from 20 μM or 6.6 μM highest concentration), from a 100% DMSO stock solution, 1/5 dilution, is added to the wells (final DMSO concentration of 1% in reaction assay). Enzyme and peptide substrate are used at optimized concentrations (cf. Table VI). The enzyme and substrate are diluted in assay buffer to a total volume of 11 μL. The reaction is started by addition of 9 μL of ATP+[γ-^33P]ATP, diluted in the same buffer as enzyme and substrate. The mixture is incubated at 30° C. The reaction is terminated by adding 25 μL of 150 mM phosphoric acid. Samples are transferred to filter plates and incorporated radioactivity is measured using a scintillation counter.
The incubation time, assay buffer composition, and concentrations of ATP, enzyme and substrate are reported in Table VI for example kinase off-target assays.
10 μM staurosporine (1% DMSO) is used as positive control (100% inhibition); vehicle (water+1% DMSO) as negative control (0% inhibition).

[1] = test system: IL-1β triggered IL-6 release in SW1353 cells; assay: SW1353 cellular selectivity assay, IL-1β trigger, IL-6 ELISA readout; type: cell-based, human; settings: IL-1β trigger 1 ng/mL; for IC50: Homo sapiens; for IL-1β trigger IL-6 PIN at 20 μM: percent inhibition at 20 μM compound
From the text: The aim of this assay is to evaluate the selectivity of compounds of the invention for the activated TLR/IRAK-4 pathway in an in vitro human cellular assay setting. SW1353 cells are from a chondrocytic cell line and are responsive to both the interleukin 1 (IL-1) and the TNFα cytokine triggers. Both cytokine triggers induce the expression of interleukin 6 (IL-6) and MMP13 by these cells. IL-6 and MMP13 releases are used as readouts in this assay and represent a measure for the level of inhibition of the TLR/IRAK-4 pathway by the tested compound.
SW1353 cells are cultured in DMEM supplemented with 10% FBS and 1% Penicillin/Streptomycin. Cells are incubated at 37° C. in a humidified atmosphere of 5% CO2 and subcultured twice a week. During subculturing, trypsin-EDTA is used to detach the cells, followed by a neutralization step with cell culture medium. After centrifugation (1,000 rpm during 5 min), the pellet is resuspended in cell culture medium and cells are counted using an automated cell counter (Invitrogen Countess™).
Cells are used at passage 16 and plated at a density of 15,000 cells per well in 120 μL cell culture medium in 96-well culture plates. Cells are allowed to attach during overnight incubation.
SW1353 cells are pre-incubated with test compound by addition of 15 μL of 10× concentrated compound solution for 2 h at 37° C. and 5% CO2. The compounds are tested at different concentrations and prepared by 3-fold serial dilutions from the 10 mM stock solution in DMSO followed by a 1/50 dilution step in cell culture medium. Final test concentrations in the assay start from 20 μM, with subsequent 3-fold serial dilutions with equal final DMSO concentrations of 0.2%. After the compound pre-incubation step, the SW1353 cells are triggered by addition of 15 μL of 10× concentrated IL-1f (Peprotech, 200-01B) or TNFα trigger (Peprotech, 300-01A) to the wells with final assay volume of 150 μL per well and final trigger concentration of 1 ng/mL and 10 ng/mL, respectively. Negative controls are adjusted with equal DMSO concentrations without trigger. The assay plates are then incubated in a humidified incubator at 37° C. and 5% CO2. Cell supernatants are harvested 24 h and 48 h later by transferring the cell medium into a V-bottom polypropylene 96-well plate and stored at −80° C. until ELISA readout.
The levels of secreted IL-6 in the cell supernatants are quantified in an enzyme-linked immunosorbent assay (ELISA). […] Luminescence of the converted substrate is measured with a Luminoskan™ Ascent luminometer.
All controls are measured within the linear range of the human IL-6 and MMP13 standard curve of the ELISA. […]

T1 sequence (P49841 whole entry): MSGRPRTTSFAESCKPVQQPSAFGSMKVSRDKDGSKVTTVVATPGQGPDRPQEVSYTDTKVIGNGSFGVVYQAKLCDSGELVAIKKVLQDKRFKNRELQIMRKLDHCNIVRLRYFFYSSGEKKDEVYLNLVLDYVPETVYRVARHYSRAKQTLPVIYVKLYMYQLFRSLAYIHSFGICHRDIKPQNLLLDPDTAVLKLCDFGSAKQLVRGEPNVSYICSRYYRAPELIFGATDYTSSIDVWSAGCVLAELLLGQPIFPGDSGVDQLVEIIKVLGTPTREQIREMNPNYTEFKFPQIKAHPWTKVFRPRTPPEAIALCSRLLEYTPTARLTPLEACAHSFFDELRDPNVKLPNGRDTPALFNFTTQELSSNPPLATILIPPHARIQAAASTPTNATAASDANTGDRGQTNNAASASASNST

| IC50 (GSK3b) [µM] | IC50 [1] [nM] | SMILES | IL-1β trigger IL-6 PIN at 20 μM [1] |
| --- | --- | --- | --- |
| > 6.67 | 54 | N#Cc1ccc(-n2cnc3cc(OCCOCCO)c(NC4CCOCC4)nc32)nc1 [Compound 1, 6-[6-[2-(2-hydroxy-ethoxy)-ethoxy]-5-(tetrahydro-pyran-4-ylamino)-imidazo[4,5-b]pyridin-3-yl]-nicotinonitrile] | [89%] |
| > 1.33 | 40 | C[C@]1(O)CC[C@@H](Nc2nc3c(cc2OCCOCCO)ncn3-c2ccc(C#N)cn2)CC1 [Compound 12, 6-[6-[2-(2-hydroxyethoxy)ethoxy]-5-[((cis-1,4)-4-hydroxy-4-methylcyclohexyl)amino]imidazo[4,5-b]pyridin-3-yl]pyridine-3-carbonitrile] | [80%] |
